In US8742113B2, “Furanone derivative” (SBI Biotech Co., Ltd., priority 2011, dated 2014):

Experiments:
[1] = molecular target: human Cdc7/human ASK complex protein (Homo sapiens (Human), UniProt O00311); test: Inhibitory effect on Cdc7 protein kinase (MSA assay kit); assay type: biochemical; settings: human Cdc7/human ASK complex, FITC-labeled MCM2 peptide substrate, reaction 5 hours at room temperature; read-out: Test Example 1 Cdc7 IC50 value
Method: [Inhibitory Effect on Cdc7 Protein Kinase]
Measurement of kinase activity was carried out using an MSA assay kit (QuickScout Screening Assist™ Kit, Carna Biosciences, Inc.).
Assay buffer (20 mM HEPES, 0.01% Triton X-100™, 2 mM dithiothreitol, pH 7.5) was used to prepare a substrate mixture solution comprising 4 μM of a kinase-reaction substrate (FITC-labeled MCM2 peptide), 40 mM MgCl2, and 20 μM ATP.
The enzyme supplied in the kit (human Cdc7/human ASK complex protein) was diluted in the assay buffer so as to be at 7 nM, thereby preparing an enzyme solution.
The stock solution of each test compound was diluted in DMSO to prepare diluted DMSO solutions of 10 concentrations (0.00003 mM, 0.0001 mM, 0.0003 mM, 0.001 mM, 0.003 mM, 0.01 mM, 0.03 mM, 0.1 mM, 0.3 mM, 1 mM), each of which was further diluted 25 times in the assay buffer to make a drug solution (a solution containing 4% DMSO).
The kinase reaction was performed in wells of a polypropylene 384-well plate in which 5 μl of each of the drug solutions or of a solvent (assay buffer containing 4% DMSO), 5 μl of the substrate mixture solution, and 10 μl of the enzyme solution were mixed. The assay buffer, instead of the enzyme solution, was added to blank wells. After the reaction at room temperature for 5 hours, 60 μl of the termination buffer supplied in the kit was added to each well to stop the reaction. The percent inhibition of each reaction was determined using a LabChip EZ Reader II system (manufactured by Caliper Life Sciences), according to the protocol provided with the assay kit. In this case, the peak heights of the separated substrate and the phosphorylated substrate were represented as S and P, respectively, and the percent inhibition (%) by a tested compound was calculated according to the following formula: Percent inhibition(%)=(1−(C−A)/(B−A))×100 wherein A denotes P/(P+S) for a blank well, B denotes P/(P+S) for a solvent well, and C denotes P/(P+S) for a compound-added well.
The IC50 value of a tested compound was calculated by regression analysis of the percent inhibition values versus the (logarithmic) concentrations of the tested compound.

[2] = system: MCM2 phosphorylation in COLO205 cells; test: Inhibitory effect on MCM2 phosphorylation using cells (Western blot); assay type: cell-based; settings: Homo sapiens, COLO 205, 0.1 μM test compound, 24 hours, class by percent phosphorylation of MCM2, read-out: Test Example 2 Inhibitory effect on MCM2 phosphorylation
Method: [Inhibitory Effect on Phosphorylation Using Cells]
COLO205 cells derived from human colon adenocarcinoma (RCB2127, RIKEN BRC) were cultured in 10 cm dishes using RPMI-1640 medium (SIGMA, R8758) supplemented with 10% FCS (Equitech-bio) and 5% penicillin/streptomycin (GIBCO, 15140). After the cells were cultured to a confluence of 70 to 90%, the medium was removed, and the cells were treated with trypsin (2 mL, TrypLE Express, GIBCO, 12604-021) and then harvested using a new medium.
COLO205 cells were seeded in 6-well plates (FALCON, 35046) to 2.5×10^5 cells (1 ml) per well and cultured overnight in a 5% CO2 incubator. A drug solution, which was prepared by adding 1.5 μl of a 0.1-mM stock solution in DMSO of a test compound to 500 μl of medium, was added to each well (to a final drug concentration of 0.1 μM), and then cultured for another 24 hours.
Cells were cultured for 24 hours in the presence of a test compound, harvested using a similar way as described above, washed with PBS, and then pelletized and stored at −80° C. The frozen cells were thawed, subsequently suspended immediately in 2×SDS-PAGE electrophoresis buffer (1×10^5 cells per 10 μl), and heated at 95° C. for 10 minutes, leading to the dissolution and denaturation of the proteins. The resulting sample solutions were subjected to SDS-PAGE using a 5-20% gradient acrylamide gel (e-PAGEL (5-20%), ATTO, E-T520L). After the electrophoresis was completed, the gel was immersed in tris-glycine buffer supplemented with 20% methanol, and the proteins in the gel were transferred onto a PVDF membrane (MILLIPORE, Immobilon-P, IPVH00010) using a semi-dry transfer apparatus (TRNS-BLOT SD SEMI-DRY […] CELL, BIO RAD).
The transferred PVDF membrane was blocked with 5% skim milk (Difco Skim Milk, BD, 232100), and then subjected to reaction with an anti-MCM2 goat antibody (N-19, Santa Cruz, sc-9839) or anti-phosphorylated MCM2 rabbit antibody (S53) (Bethyl, A300-756A) as a primary antibody and additionally with an anti-α tubulin mouse antibody (Clone DM 1A, SIGMA, 9026) as an internal control. Each band was detected by chemiluminescence using an HRP-labeled anti-goat IgG donkey antibody (Santa Cruz, sc2020), anti-rabbit IgG sheep antibody (Roche, 12015218001), or anti-mouse IgG donkey antibody (Jackson ImmunoResearch, 715-035-151) as a secondary antibody. The combinations of and the diluted concentrations of the primary and secondary antibodies were as indicated below.
The bands which were detected were normalized using the amount of endogenous α-tubulin as a reference, and the percent phosphorylation of MCM2 was calculated for each of the tested compounds. Their inhibitory effects on MCM2 phosphorylation were indicated by a triple asterisk (***) in the case where the percent phosphorylation of MCM2 was less than 20%, by a dual asterisk (**) in the case where the percent phosphorylation of MCM2 was not less than 20% and less than 50%, and by a single asterisk (*) in the case where the percent phosphorylation of MCM2 was not less than 50% and less than 70%.

human Cdc7/human ASK complex protein, sequence (O00311 whole entry): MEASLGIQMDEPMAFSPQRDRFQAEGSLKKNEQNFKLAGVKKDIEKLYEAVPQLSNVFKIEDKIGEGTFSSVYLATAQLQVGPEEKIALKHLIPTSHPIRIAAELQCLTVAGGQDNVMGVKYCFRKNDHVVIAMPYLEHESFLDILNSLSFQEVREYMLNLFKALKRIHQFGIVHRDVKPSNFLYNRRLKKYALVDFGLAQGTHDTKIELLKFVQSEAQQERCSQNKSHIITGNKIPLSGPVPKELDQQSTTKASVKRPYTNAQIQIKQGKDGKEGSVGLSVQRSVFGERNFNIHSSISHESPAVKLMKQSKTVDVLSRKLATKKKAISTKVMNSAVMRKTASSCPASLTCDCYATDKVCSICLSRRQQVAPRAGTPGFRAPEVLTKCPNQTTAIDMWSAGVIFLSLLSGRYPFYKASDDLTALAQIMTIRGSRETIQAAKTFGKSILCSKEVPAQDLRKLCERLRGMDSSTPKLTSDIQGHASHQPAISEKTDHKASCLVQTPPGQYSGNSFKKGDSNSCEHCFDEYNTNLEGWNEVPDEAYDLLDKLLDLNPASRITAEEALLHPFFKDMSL
human Cdc7/human ASK complex protein, sequence (Q9UBU7 whole entry partner): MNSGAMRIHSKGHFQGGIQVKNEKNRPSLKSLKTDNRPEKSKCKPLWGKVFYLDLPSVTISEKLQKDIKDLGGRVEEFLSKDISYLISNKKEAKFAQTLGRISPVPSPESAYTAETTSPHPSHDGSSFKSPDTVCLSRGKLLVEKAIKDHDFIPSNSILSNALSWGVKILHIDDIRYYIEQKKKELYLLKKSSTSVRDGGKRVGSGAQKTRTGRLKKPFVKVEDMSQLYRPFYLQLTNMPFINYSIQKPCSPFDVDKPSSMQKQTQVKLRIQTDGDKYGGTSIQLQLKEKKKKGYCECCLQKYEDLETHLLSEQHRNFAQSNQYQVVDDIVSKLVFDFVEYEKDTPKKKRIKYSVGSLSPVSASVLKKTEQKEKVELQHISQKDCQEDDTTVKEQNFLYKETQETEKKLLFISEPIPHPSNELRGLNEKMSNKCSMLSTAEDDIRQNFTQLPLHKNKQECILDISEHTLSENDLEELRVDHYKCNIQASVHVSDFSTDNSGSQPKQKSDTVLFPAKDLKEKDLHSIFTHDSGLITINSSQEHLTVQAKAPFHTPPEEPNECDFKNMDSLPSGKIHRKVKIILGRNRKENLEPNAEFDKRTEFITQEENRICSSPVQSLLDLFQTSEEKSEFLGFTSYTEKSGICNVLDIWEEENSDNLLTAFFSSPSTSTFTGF

IC50 [1] [nM] | Structure (SMILES) | inhibition at 0.1 µM [2] [%]
8 | CC(C)OC(=O)C1=C(NN2CCOCC2)O/C(=C\c2c[nH]c3ncccc23)C1=O [Example 245, Isopropyl 5-[(1H-pyrrolo[2,3-b]pyridin-3-yl)methylene]-2-(morpholinoamino)-4-oxo-4,5-dihydrofuran-3-carboxylate] | < 20
8 | CCOC(=O)C1=C(NN2CCN(CC(F)(F)F)CC2)O/C(=C\c2c[nH]c3ncccc23)C1=O [Example 246, Ethyl 5-[(1H-pyrrolo[2,3-b]pyridin-3-yl)methylene]-4-oxo-2-{[4-(2,2,2-trifluoroethyl)piperazinyl]amino}-4,5-dihydrofuran-3-carboxylate] | < 20
